Source: publication PMC10177692, “Novel topoisomerase II/EGFR dual inhibitors: design, synthesis and docking studies of naphtho[2′,3′:4,5]thiazolo[3,2-a]pyrimidine hybrids as potential anticancer agents with apoptosis inducing activity” (Journal of Enzyme Inhibition and Medicinal Chemistry, 2023)
Where two headings read alike, the source gives them in different places.

Legend:
[1] = tested on: caspase-7; experiment: Caspase-7 ELISA in MCF-7 cells; type: cell-based, human; settings: for Caspase 7 FLD: MCF-7, at IC50, fold of control; for Caspase 7 Conc.(ng/ml): MCF-7, at IC50, control 0.45 ± 0.03
Protocol: The effect of 6a, 6c and 6i hybrids on caspase-7 and −9 levels in MCF-7 cell line was measured using Human Caspase-7 ELISA Kit (BioVision Inc., Milpitas, CA 95035 USA) and Human Caspase-9 ELISA Kit (EIA-4860, DRG, USA), respectively, and according to the manufacturer’s instructions. The results were expressed as Mean ± SE of three independent experiments.

[2] = target: T1, topoisomerase II (Homo sapiens, UniProt P11388); experiment: DNA topo II inhibition assay (kDNA, agarose gel); type: biochemical; settings: 10 µM, with topo II
T1 construct: purchased Topogen, USA
T1 sequence (P11388 whole entry): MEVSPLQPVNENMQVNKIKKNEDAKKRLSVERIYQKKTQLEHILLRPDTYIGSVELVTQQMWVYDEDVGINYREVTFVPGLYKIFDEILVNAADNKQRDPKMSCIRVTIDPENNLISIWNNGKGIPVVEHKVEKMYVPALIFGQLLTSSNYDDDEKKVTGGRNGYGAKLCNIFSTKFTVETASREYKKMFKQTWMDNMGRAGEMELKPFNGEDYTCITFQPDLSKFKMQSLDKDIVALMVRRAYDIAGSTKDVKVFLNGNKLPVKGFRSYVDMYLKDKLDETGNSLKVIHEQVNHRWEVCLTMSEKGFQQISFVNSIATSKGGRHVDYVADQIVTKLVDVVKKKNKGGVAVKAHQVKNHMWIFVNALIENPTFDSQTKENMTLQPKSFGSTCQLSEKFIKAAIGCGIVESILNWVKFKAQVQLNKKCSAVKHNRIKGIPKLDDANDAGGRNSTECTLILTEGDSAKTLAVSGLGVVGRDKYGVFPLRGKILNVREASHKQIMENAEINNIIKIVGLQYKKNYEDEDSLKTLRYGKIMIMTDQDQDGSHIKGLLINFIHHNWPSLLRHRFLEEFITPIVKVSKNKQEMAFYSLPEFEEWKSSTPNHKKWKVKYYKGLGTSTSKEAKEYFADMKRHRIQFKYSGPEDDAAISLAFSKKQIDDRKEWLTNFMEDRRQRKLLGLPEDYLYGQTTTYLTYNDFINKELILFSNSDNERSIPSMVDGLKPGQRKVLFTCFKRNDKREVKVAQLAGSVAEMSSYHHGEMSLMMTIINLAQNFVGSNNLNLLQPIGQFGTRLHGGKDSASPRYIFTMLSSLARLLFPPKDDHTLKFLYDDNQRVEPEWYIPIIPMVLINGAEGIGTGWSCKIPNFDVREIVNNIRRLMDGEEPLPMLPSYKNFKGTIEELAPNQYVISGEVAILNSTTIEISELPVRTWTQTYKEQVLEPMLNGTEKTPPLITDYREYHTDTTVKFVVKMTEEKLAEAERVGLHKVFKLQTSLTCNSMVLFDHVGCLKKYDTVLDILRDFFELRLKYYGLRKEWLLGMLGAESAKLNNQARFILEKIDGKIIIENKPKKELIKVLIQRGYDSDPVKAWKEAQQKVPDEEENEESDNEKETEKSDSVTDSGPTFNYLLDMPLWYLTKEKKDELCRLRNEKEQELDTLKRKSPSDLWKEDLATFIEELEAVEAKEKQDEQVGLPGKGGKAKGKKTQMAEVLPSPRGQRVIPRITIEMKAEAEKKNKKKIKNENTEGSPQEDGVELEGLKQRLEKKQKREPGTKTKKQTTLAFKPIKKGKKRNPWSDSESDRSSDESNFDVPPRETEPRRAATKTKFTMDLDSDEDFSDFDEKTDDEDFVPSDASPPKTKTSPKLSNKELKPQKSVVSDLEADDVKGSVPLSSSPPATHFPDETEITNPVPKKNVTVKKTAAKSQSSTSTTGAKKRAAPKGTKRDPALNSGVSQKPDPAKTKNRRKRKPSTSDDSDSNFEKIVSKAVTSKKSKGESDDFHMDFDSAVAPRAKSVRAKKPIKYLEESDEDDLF
Protocol: Using the procedure outlined in topoisomerase II Drug Screening Kit (Topogen, USA), the effect of 6a, 6c and 6i on topoisomerase II inhibition and the effectiveness of catenated/decatenated kDNA formation were examined. The reaction mixture includes 10 mM MgCl2, 50 mM Tris-HCl, 0.5 mM dithiothreitol, […]/ml bovine serum albumin, 200–300 ng of kDNA and topoisomerase II. […] After the reaction samples were incubated for 30 min at 37 °C, the reaction was stopped by adding […] of a stop buffer containing 10% (w/v) SDS and […] of 0.5 mg/ml proteinase followed by incubating the mixture for 10 min at 37 °C. The reaction mixture was separated by 1% agarose gel and examined after being stained with ethidium bromide.

[3] = tested on: Bax; experiment: Bax level ELISA in MCF-7 cells; type: cell-based, human; settings: for Bax Conc.(pg/ml): MCF-7, at IC50, 24 h, control 83.16 ± 6.2; for Bax FLD: MCF-7, at IC50, fold of control cells
Protocol: (§1) MCF-7 cells were cultured in DMEM supplied with 10% FBS and incubated in 5% CO2 in air at 37 °C. […] Cell lysate was diluted using standard diluent buffer over the range of assay. Bax and Bcl-2 content in the lysate was assessed using human Bax ELISA kit (DRG, USA) and Bcl-2 ELISA Kit (Zymed Laboratories, Invitrogen Immuno-detection, Canada), respectively, according to the manufacturer’s instructions for each kit. The results were expressed as Mean ± SE of three independent experiments.

[4] = tested on: Bcl-2; experiment: Bcl-2 level ELISA in MCF-7 cells; type: cell-based, human; settings: for Bcl-2 Conc.(ng/ml): MCF-7, at IC50, 24 h, control 6.56 ± 0.22; for Bcl-2 FLD: MCF-7, at IC50, fold of control cells
Protocol: as §1

[5] = tested on: MCF-7; experiment: MTT anti-proliferative assay; type: cell-based, human; settings: for IC50: Homo sapiens, MCF7
Protocol: (§2) The culture media were supplemented with 10% heat inactivated foetal bovine serum (FBS, HyClone, Thermo Scientific) and antibiotics (100 U/ml penicillin and 100 µg/ml streptomycin, HyClone, Thermo Scientific). The cells were incubated in a humidified atmosphere containing 5% CO2 (Heracell VIOS CO2 incubator, Thermo Scientific) in air at 37 °C.
(§3) MTT reagent, at volume equal to 10% of the culture medium volume, was added to the cultured cells and to the blank wells. The culture plates were re-incubated for 2–4 h depending on cell type and density. After the incubation period, culture plates were restored from the incubator and the obtained formazan crystals were dissolved in acidified isopropanol with continuous shaking using plate shaker (MaxQ 2000, Thermo Fisher Scientific Inc., MI, USA) at room temperature. Absorbance was measured spectrophotometrically at wavelength 570 nm using a plate reader (Stat FaxR 4200, Awareness Technology, Inc., FL, USA). […] Three independent experiments were performed for each compound and Mean ± SE were calculated.

[6] = tested on: HCT-116; experiment: MTT anti-proliferative assay; type: cell-based, human; settings: for IC50: Homo sapiens, HCT-116, MTT, 24 h, mean ± SE of three experiments, read-out: IC50 (µM) ± S.E. HCT-116
Protocol: as §2, §3

[7] = tested on: A549; experiment: MTT anti-proliferative assay; type: cell-based, human; settings: for IC50: Homo sapiens, A549, MTT, 24 h, mean ± SE of three experiments, read-out: IC50 (µM) ± S.E. A549
Protocol: as §2, §3

[8] = target: T2, topoisomerase IIα (Homo sapiens, UniProt P11388); experiment: Topoisomerase IIα inhibitory activity (ELISA kit); type: cell-based; settings: MCF-7 cell line; for % inhibition of topoisomerase IIα activity: compounds at their IC50, compared to control; for concentration of topoisomerase IIα: compounds at their IC50, control 3.663 ± 0.09 ng/ml
T2 construct: it decreases the concentration of topoisomerase iIα in MCF-7 cell line to 1.043 ± 0.10 ng/ml; endogenous in cells; host or cells: MCF-7
T2 sequence (P11388 whole entry): as above
Protocol: Biotin-conjugated antibody was added to each well followed by incubation at 37 °C for 1 h, then the plates were aspirated. Avidin conjugated Horseradish Peroxidase (HRP avidin) solution was added to each well, incubated again at 37 °C for 1 h. TMB substrate was added to the wells and the plate was incubated at 37 °C for 30 min at dark place. The absorbance was read using spectrophotometer at a wavelength of 450 nm.

[9] = tested on: p53; experiment: p53 level ELISA in MCF-7 cells; type: cell-based, human; settings: for p53 FLD: MCF-7, at IC50, fold of control cells; for p53 Conc.(pg/ml): control 257 ± 19.1
Protocol: p53 level was determined in MCF-7 cell line using Human p53 ELISA Kit (Sigma Aldrich, St. Louis, MO, USA). The cells were lysed using cell extraction buffer. Cell lysate was diluted with standard diluent buffer, then added to p53 monoclonal antibody pre-coated 96-wells plate. The plate incubated for 2 h at room temperature. Anti-p53 detection antibody was added to the plate and re-incubated at room temperature for 1 h. The plate washed four times using wash buffer followed by addition of anti-rabbit IgG-Horseradish Peroxidase (HRP) working solution. The plate incubated at room temperature for 30 min. Chromogen TMB (tetramethylbenzidine) was added to induce colour reaction. The absorbance of the plate was read at 450 nm using microplate reader (Bio-Rad Laboratories, Hercules, CA, USA). Three independent experiments were performed for each compound and Mean ± SE were calculated.

[10] = tested on: MCF-7 cells; experiment: In vitro DNA flow cytometry (cell cycle analysis); type: cell-based, human; settings: MCF-7, at IC50, 24 h; for DNA content %Pre-G1: control 1.89; for DNA content %G2/M: control 7.68; for DNA content %S: control 35.09; for DNA content %G0-G1: control 57.23
Protocol: MCF-7 cells were seeded at density of 2 × 10^5 into each well of a 6-well plate. The cells were maintained in Dulbecco’s Modified Eagle’s Medium (DMEM), supplied with 10% foetal bovine serum, and incubated in a humidified atmosphere containing 5% CO2 in air for 24 h at 37 °C. The incubation medium was replaced with a fresh one containing the synthesised hybrids 6a and 6i at their IC50 in DMSO (1% v/v). The cell plates were incubated for 24 h. The cells were washed twice with cold phosphate buffered saline (PBS) then fixed with 70% ice-cold ethanol. Cells washed with PBS at 37 °C for 30 min and recovered by centrifugation at 2000 rpm for 5 min. Cells were stained using DNA fluorochrome propidium iodide (PI). The plates were incubated at room temperature for 20 min in a dark place. Then the cells were investigated with a FACS Calibre flow cytometer (Becton Dickinson, Heidelberg, Germany)[48].

[11] = MCF-7, concentration used for treatment, read-out: IC50 µM (Table 4)
[12] = MCF-7, concentration used for treatment, read-out: IC50 (Table 2)
[13] = MCF-7, concentration used for treatment, read-out: IC50 (Table 3)
[14] = MTT, 24 h, mean ± SE of three experiments, read-out: IC50 (µM) ± S.E. MCF-7

Compound	Caspase 7 FLD [1] [fold]	Caspase 7 Conc.(ng/ml) [1] [ng/mL]	linear DNA formation from catenated kDNA [2]	Bax Conc.(pg/ml) [3] [pg/mL]	Bax FLD [3] [fold]	Bcl-2 Conc.(ng/ml) [4] [ng/mL]	Bcl-2 FLD [4] [fold]	IC50 [5, 11] [µM]	IC50 [5, 12] [µM]	IC50 [5, 13] [µM]	IC50 [5, 14] [µM]	IC50 [6] [µM]	IC50 [7] [µM]	% inhibition of topoisomerase IIα activity [8] [%]	concentration of topoisomerase IIα [8] [ng/mL]	p53 FLD [9] [fold]	p53 Conc.(pg/ml) ([9]; MCF-7, at IC50) [pg/mL]	DNA content %Pre-G1 [10] [%]	DNA content %G2/M [10] [%]	DNA content %S [10] [%]	also measured
COc1ccc(-c2nc3sc4c(n3c(=O)c2C#N)C(=O)c2ccccc2C4=O)cc1 [Compound 6a, 2–(4-Methoxyphenyl)-4,6,11-trioxo-6,11-dihydro-4H-naphtho[2′,3′:4,5]-thiazolo[3,2-a]pyrimidine-3-carbonitrile]	14.93	6.72 ± 0.23	the production of linear DNA was not noticed	436.1 ± 5.1	5.24	3.99 ± 0.24	0.61	3.34	3.34	3.34	3.34 ± 0.21	3.58 ± 0.24	2.81 ± 0.18	35.81	2.351 ± 0.21	3.6	922 ± 37.5	33.41	34.78	28.94	DNA content %G0-G1 [10]: 36.28%
N#Cc1c(-c2ccc([N+](=O)[O-])cc2)nc2sc3c(n2c1=O)C(=O)c1ccccc1C3=O [Compound 6i, 2–(4-Nitrophenyl)-4,6,11-trioxo-6,11-dihydro-4H-naphtho[’',’':4,5]thiazolo-[3,2-a]pyrimidine-3-carbonitrile]	20.41	9.20 ± 0.87	the production of linear DNA was not noticed	581.5 ± 8.7	6.99	3.64 ± 0.08	0.55	1.79	1.79	1.79	1.79 ± 0.11	2.29 ± 0.18	1.55 ± 0.13	71.50	1.043 ± 0.10	5	1285 ± 29.9	45.26	2.89	51.17	fold superior activity than Dox ([5]; MCF-7, ratio of IC50 values): 3.13 fold; fold the activity of erlotinib ([5]; MCF-7, ratio of IC50 values): 4.05 fold; fold superior activity than Dox ([6]; HCT-116, ratio of IC50 values): 2.96 fold; fold the activity of erlotinib ([6]; HCT-116, ratio of IC50 values): 3.77 fold; fold superior activity than Dox ([7]; A549, ratio of IC50 values): 3.19 fold; fold the activity of erlotinib ([7]; A549, ratio of IC50 values): 3.35 fold; increase in p53 level compared to Dox treated cells ([9]; MCF-7, at IC50): 1.2 fold; DNA content %G0-G1 [10]: 45.94%
